Experimental data reported in patent US9828385B2, “Spiro-oxazolones” (Hoffmann-La Roche Inc., priority 2014, dated 2017).

Molecular target: T1, human V1a receptor (Homo sapiens, UniProt P37288)
T1 construct: expressed in transfected cells; host or cells: HEK293 cells, transiently transfected; cell membranes
Assay: human V1a receptor binding studies (3H-Vasopressin, SPA beads)
Conditions: membranes of HEK293 cells transiently transfected with human V1a receptor, Ki by Cheng-Prussoff from IC50, read-out: pKi hV1a (converted)
Method: The human V1a receptor was cloned by RT-PCR from total human liver RNA. The coding sequence was subcloned in an expression vector after sequencing to confirm the identity of the amplified sequence. […] Cell membranes were prepared from HEK293 cells transiently transfected with the expression vector and grown in 20 liter fermenters with the following protocol.
50 g of cells are re-suspended in 30 ml freshly prepared ice cold Lysis buffer (50 mM HEPES, 1 mM EDTA, 10 mM MgCl2 adjusted to pH=7.4+complete cocktail of protease inhibitor (Roche Diagnostics)). Homogenized with Polytron for 1 min and sonicated on ice for 2×2 minutes at 80% intensity (Vibracell sonicator). The preparation is centrifuged 20 min at 500 g at 4° C., the pellet is discarded and the supernatant centrifuged 1 hour at 43′000 g at 4° C. (19′000 rpm). The pellet is re-suspended in 12.5 ml Lysis buffer+12.5 ml Sucrose 20% and homogenized using a Polytron for 1-2 min. The protein concentration is determined by the Bradford method and aliquots are stored at −80° C. until use. For binding studies 60 mg Yttrium silicate SPA beads (Amersham) are mixed with an aliquot of membrane in binding buffer (50 mM Tris, 120 mM NaCl, 5 mM KCl, 2 mM CaCl2, 10 mM MgCl2) for 15 minutes with mixing. 50 μl of bead/membrane mixture is then added to each well of a 96 well plate, followed by 50 μl of 4 nM 3H-Vasopressin (American Radiolabeled Chemicals). For total binding measurement 100 μl of binding buffer are added to the respective wells, for non-specific binding 100 μl of […] cold vasopressin and for compound testing 100 μl of a serial dilution of each compound in 2% DMSO. The plate is incubated 1 h at room temperature, centrifuged 1 min at 1000 g and counted on a Packard Top-Count. Non-specific binding counts are subtracted from each well and data is normalized to the maximum specific binding set at 100%. To calculate an IC 50 the curve is fitted using a non-linear regression model (XLfit) and the Ki is calculated using the Cheng-Prussoff equation.

T1 sequence (P37288 whole entry): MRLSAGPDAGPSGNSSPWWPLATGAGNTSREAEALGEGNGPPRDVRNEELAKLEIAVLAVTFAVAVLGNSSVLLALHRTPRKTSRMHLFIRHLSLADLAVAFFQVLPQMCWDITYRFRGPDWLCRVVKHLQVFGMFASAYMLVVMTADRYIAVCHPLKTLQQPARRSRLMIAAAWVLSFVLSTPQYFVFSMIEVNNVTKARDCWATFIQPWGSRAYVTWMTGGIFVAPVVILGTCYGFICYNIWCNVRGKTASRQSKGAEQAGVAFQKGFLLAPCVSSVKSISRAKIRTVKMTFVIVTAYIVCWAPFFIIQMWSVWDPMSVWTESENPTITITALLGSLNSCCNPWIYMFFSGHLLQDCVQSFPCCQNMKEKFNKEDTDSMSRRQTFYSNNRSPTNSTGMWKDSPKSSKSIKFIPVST

| Compound | Ki [nM] |
| --- | --- |
| O=C1N=C(N2CCC3(CC2)OCc2ccccc23)OC1C(F)c1ccc(Cl)cc1 (single isomer, unassigned) [Example 46, 5-((4-Chlorophenyl)fluoromethyl)-2-(1′H,3H-spiro[2-benzofuran-1,4′-piperidin]-1′-yl)-1,3-oxazol-4(5H)-one diastereomer a, enantiomer A] | 31.6 |
| O=C1N=C(N2CCC3(CC2)OCc2ccccc23)OC1C(F)c1ccc(Cl)cc1 (single isomer, unassigned) [Example 47, 5-((4-Chlorophenyl)fluoromethyl)-2-(1′H,3H-spiro[2-benzofuran-1,4′-piperidin]-1′-yl)-1,3-oxazol-4(5H)-one diastereomer a, enantiomer B] | 20 |
| O=C1N=C(N2CCC3(CC2)OCc2ccccc23)OC1C(F)c1ccc(Cl)cc1 (single isomer, unassigned) [Example 48, 5-((4-Chlorophenyl)fluoromethyl)-2-(1′H,3H-spiro[2-benzofuran-1,4′-piperidin]-1′-yl)-1,3-oxazol-4(5H)-one diastereomer b, enantiomer A] | 39.8 |
| O=C1OC2(CCN(C3=NC(=O)C(C(O)c4ccc(Cl)cc4)O3)CC2)c2ccccc21 (single isomer, unassigned) [Example 50, 1′-{-5-[(4-Chlorophenyl)(hydroxy)methyl]-4-oxo-4,5-dihydro-1,3-oxazol-2-yl}-3H-spiro[2-benzofuran-1,4′-piperidin]-3-one diastereomer a, enantiomer A] | 20 |
| O=C1OC2(CCN(C3=NC(=O)C(C(O)c4ccc(Cl)cc4)O3)CC2)c2ccccc21 (single isomer, unassigned) [Example 51, 1′-{-5-[(4-Chlorophenyl)(hydroxy)methyl]-4-oxo-4,5-dihydro-1,3-oxazol-2-yl}-3H-spiro[2-benzofuran-1,4′-piperidin]-3-one diastereomer a, enantiomer B] | 158 |
| O=C1OC2(CCN(C3=NC(=O)C(C(O)c4ccc(Cl)cc4)O3)CC2)c2ccccc21 (single isomer, unassigned) [Example 52, 1′-{-5-[(4-Chlorophenyl)(hydroxy)methyl]-4-oxo-4,5-dihydro-1,3-oxazol-2-yl}-3H-spiro[2-benzofuran-1,4′-piperidin]-3-one diastereomer b, enantiomer A] | 631 |

The remaining lines, values ahead:

| Ki [nM] | Compound |
| --- | --- |
| 31.6 | O=C1N=C(N2CCC3(CC2)OCc2ccccc23)OC1C(O)c1ccccc1 (single isomer, unassigned) [Example 36, 5-(Hydroxy(phenyl)methyl)-2-(1′H,3H-spiro[2-benzofuran-1,4′-piperidin]-1′-yl)-1,3-oxazol-4(5H)-one diastereomer a, enantiomer A] |
| 126 | O=C1N=C(N2CCC3(CC2)OCc2ccccc23)OC1C(O)c1ccccc1 (single isomer, unassigned) [Example 37, 5-(Hydroxy(phenyl)methyl)-2-(1′H,3H-spiro[2-benzofuran-1,4′-piperidin]-1′-yl)-1,3-oxazol-4(5H)-one diastereomer a, enantiomer B] |
| 794 | O=C1N=C(N2CCC3(CC2)OCc2ccccc23)OC1C(O)c1ccccc1 (single isomer, unassigned) [Example 38, 5-(Hydroxy(phenyl)methyl)-2-(1′H,3H-spiro[2-benzofuran-1,4′-piperidin]-1′-yl)-1,3-oxazol-4(5H)-one diastereomer b, enantiomer A] |
| 126 | O=C1N=C(N2CCC3(CC2)OCc2ccccc23)OC1C(O)c1ccccc1 (single isomer, unassigned) [Example 39, 5-(Hydroxy(phenyl)methyl)-2-(1′H,3H-spiro[2-benzofuran-1,4′-piperidin]-1′-yl)-1,3-oxazol-4(5H)-one diastereomer b, enantiomer B] |
| 2 | O=C1N=C(N2CCC3(CC2)OCc2ccccc23)OC1C(F)c1ccc(Cl)cc1 (single isomer, unassigned) [Example 49, 5-((4-Chlorophenyl)fluoromethyl)-2-(1′H,3H-spiro[2-benzofuran-1,4′-piperidin]-1′-yl)-1,3-oxazol-4(5H)-one diastereomer b, enantiomer B] |
